Series [1] in a line: GFR by capillary electrophoresis of non-isotopic (cold) iothalamate meglumine, timed urine and average of 2 plasma samples after subcutaneous injection. To be noted: for mean GFR: capillary electrophoresis. It is filed as in vivo, human. How it is done:
Prior to the test, patients were given 3 drops of a saturated solution of potassium iodide in 20 mis of water to prevent thyroid uptake of the small amount of free ^125 I-iothalamate and to protect patients from radiation exposure to the thyroid. They were also given a single subcutaneous injection of 0.5 mls of iothalamate meglumine (Conray®) (300 mg) diluted 1:1 with distilled water. Patients who professed an allergy to iodine were not included in this study, nor were patients who had been given an angiographic dye in the previous 24 hours.
On the day of the appointment, the patient ate nothing for 4 hours preceding the test (diabetics 2 hours) and drank 4 glasses of water in the hour preceding the test. They were also instructed not to void within 45 minutes of their appointment time. Patients were given oral hydration of 200 mls/per hour throughout the test.
Prior to injection, urine (U0) and blood plasma (P0) samples were obtained to assess for drug interferences. After subcutaneous injection of the two different GFR markers, a 45-minute equilibration period allowed blood levels to peak and become stable or fall as previously described for 125I subcutaneous iothalamate clearances by N. T. Ott et al., Mayo Clin. Proc., 50, 664 (1975), for ^125 I-iothalamate. This sampling method was adapted from studies reported by Israelit et al. for ^125 I-iothalamate, in Kid. […] After the 45 minute equilibration period, 7 ml of blood (P1) and a urine sample (UE) were collected and time (T0) was recorded. […] Bladder emptying was assessed by monitoring with a Diagnostic Ultrasound bladder scanner (Model No. 2500). […]
The patient was moved to a waiting room and returned to the laboratory after 45 to 60 minutes when the urge to void became apparent. Second blood (P2) and urine (U1) samples were collected, urine volume was recorded, and bladder emptying monitored. Adequacy of the test was confirmed if the bladder was empty (<10 ml or <10% of voided volume on scanner readout), and a minimum of 100 mls of urine was voided during the test. The timed urine (U1) and bloods (P1 and P2) were analyzed by CE. […]

For series [2] the following is noted: cited from earlier work.
For series [3] the following is noted: urine diluted with 5 mM borate; cited from earlier work.

Read-outs that look alike come from different tables or passages of the source.

For `CNC(=O)c1c(I)c(NC(C)=O)c(I)c(C(=O)O)c1I` [iothalamate meglumine, 1-deoxy-1-(methylamino)-D-glucitol-5-acetamido-2,4,6,-triiodo-N-methylisophthalamate], the “mean GFR” value in series [1] (initial patient group, before vortexing of ultrafiltrate) turned out to be 58 mls/min/1.73 M^2; in series [1] (second group of 31 patients, ultrafiltrate vortexed) it was 62 mls/min. The “range of GFR's over which CE and isotope methods correlated” value in series [1] (initial patients (one hundred), s.c. injection) is reported as 9-103 mls/min/1.73 M^2.
Take `CNC(=O)c1c(I)c(NC(C)=O)c(I)c(C(=O)O)c1I` [Iothalamate]: the “GFR - Range of Normal” value in series [2] (AGE 18-22) is reported as more than 90 ml/min/1.73 m^2; in series [2] (AGE 23-27) it was more than 88 ml/min/1.73 m^2; in series [2] (AGE 28-32), more than 86 ml/min/1.73 m^2; in series [2] (AGE 33-37), more than 84 ml/min/1.73 m^2; in series [2] (AGE 38-42), more than 82 ml/min/1.73 m^2; in series [2] (AGE 43-47) it was more than 80 ml/min/1.73 m^2. Besides, the “GFR - Range of Normal” value in series [2] (AGE 48-52) is on record as more than 78 ml/min/1.73 m^2; in series [2] (AGE 53-57), more than 75 ml/min/1.73 m^2; in series [2] (AGE 58-62), more than 73 ml/min/1.73 m^2; in series [2] (AGE >62) it was more than 70 ml/min/1.73 m^2. For the same compound, in series [3], the “sample stability, refrigerated” value is “at least 2 weeks”.

These data come from patent US5989198A, “Use of capillary electrophoresis to determine glomerular filtration rate using iothalamate” (Mayo Foundation for Medical Education and Research, priority 1997, dated 1999).
